The nature of the series: in vitro. The note with it: human, hela cells, % viability.

As for `CCn1c(SCc2nc(-c3ccc(Br)cc3)no2)nnc1-c1c[nH]c2ccccc12` [CBK268668], the viability at 28.5 h, 10 µM turned out to be 94.3%.

Turning to `Cc1ccccc1CSCCNC(=O)Nc1ccc(Cl)cc1` [CBK268669], the viability at 28.5 h, 10 µM is 101%.

For the compound `CC(=O)Nc1ccc(S(=O)(=O)Nc2ccc(-c3cn4cccnc4n3)cc2)cc1` [CBK268671], the viability at 28.5 h, 10 µM worked out at 105%.

With `O=C(CCC(=O)c1ccc2c(c1)Cc1ccccc1-2)Nc1ccc(C(=O)O)cc1` [CBK268673], the viability at 28.5 h, 10 µM was determined as 110%.

For `CN1C=NC2C1C(=O)N(CCn1c(=O)c3c(ncn3C)n(C)c1=O)C(=O)N2C` (stereo not drawn) [CBK268678], the viability at 28.5 h, 10 µM came out at 101%.

`CSc1ncc(Cl)c(C(=O)NCCc2ccc(S(N)(=O)=O)cc2)n1` [CBK268679]: the viability at 28.5 h, 10 µM is 104%.

As for `Cn1c(=O)c2c(nc(NCCN)n2C)n(C)c1=O` [CBK268680], the viability at 28.5 h, 10 µM turned out to be 107%.

On to `O=C(N1CCCCCC1)N1CCN(S(=O)(=O)N2CCOCC2)CC1` [CBK268681], for which the viability at 28.5 h, 10 µM turned out to be 105%.

Regarding `COC(=O)c1ccccc1NC(=O)CSc1nc(C)cc(C(F)(F)F)n1` [CBK268682], the viability at 28.5 h, 10 µM came to 89.1%.

Turning to `CC(=O)Nc1ccc(S(=O)(=O)NC2(C(F)(F)F)C(=O)Nc3c2c(=O)[nH]c(=S)n3C2CCCCC2)cc1` (stereo not drawn) [CBK268683], the viability at 28.5 h, 10 µM worked out at 97.2%.

On to `O=C1c2cccc3cccc(c23)C(=O)N1CCCSc1nnc(-c2ccncc2)n1-c1ccccc1` [CBK268684], for which the viability at 28.5 h, 10 µM came out at 91%.

For the compound `O=C(CSc1ccc(F)cc1)Nc1cc(Cl)ccc1O` [CBK268685], the viability at 28.5 h, 10 µM turned out to be 87.5%.

Regarding `Nc1nc2c(nc(SCCc3ccccc3)n2C2OC(CO)C(O)C2O)c(=O)[nH]1` (stereo not drawn) [CBK268686], the viability at 28.5 h, 10 µM was found to be 101%.

In the case of `Nc1nc(SCc2cccc([N+](=O)[O-])c2)n[nH]1` [CBK268688], the viability at 28.5 h, 10 µM turned out to be 105%.

Consider `Cc1ccc(-n2c(SCC(=O)Nc3sc4c(c3C#N)CCCC4)nnc2-c2ccccc2O)c(C)c1` [CBK268692], for which the viability at 28.5 h, 10 µM came out at 77.9%.

For `CC1CC(C)CN(CCCNS(=O)(=O)c2ccc3c(c2)oc(=O)n3C)C1` (stereo not drawn) [CBK268695], the viability at 28.5 h, 10 µM stood at 104%.

On to `O=C(CSc1cccc2ccccc12)Nc1ccc([N+](=O)[O-])cc1O` [CBK268696], for which the viability at 28.5 h, 10 µM was 115%.

For the compound `Cc1nn(C(C)C(=O)Nc2cc(C(F)(F)F)ccc2Cl)c(C)c1[N+](=O)[O-]` (stereo not drawn) [CBK268697], the viability at 28.5 h, 10 µM is 88.5%.

As for `O=C(CSc1nnc(-c2ccc(Cl)cc2Cl)o1)c1cc2ccccc2oc1=O` [CBK268698], the viability at 28.5 h, 10 µM was determined as 88.7%.

`O=C(O)c1ccccc1-c1ccc(-c2cc(C(=O)O)c3cc(Cl)ccc3n2)o1` [CBK268699]: the viability at 28.5 h, 10 µM was found to be 91.1%.

For the compound `Cc1cc(C(=O)Nc2cc(-c3nc4ncccc4o3)ccc2Cl)ccc1[N+](=O)[O-]` [CBK268700], the viability at 28.5 h, 10 µM stood at 95.1%.

On to `Cc1cc(N2C(=O)CC(N3CCN(c4ccc(C(=O)c5cccs5)cc4)CC3)C2=O)no1` (stereo not drawn) [CBK268701], for which the viability at 28.5 h, 10 µM stood at 84.4%.

Regarding `COC(=O)c1ccc(Cl)c(NC(=O)CSc2nnc(-c3ccncc3)[nH]2)c1` [CBK268702], the viability at 28.5 h, 10 µM is 105%.

Take `O=C(NCCCN1CCOCC1)c1ccc2nccnc2c1` [CBK268704]: the viability at 28.5 h, 10 µM came to 114%.

For `O=C(Nc1cccc2ccccc12)C1CCC(C(=O)Nc2cccc3ccccc23)CC1` (stereo not drawn) [CBK268706], the viability at 28.5 h, 10 µM was determined as 81.9%.

For the compound `Cc1c(Nc2cnn(C34CC5CC(CC(CC(=O)O)(C5)C3)C4)c(=O)c2Cl)c(=O)n(-c2ccccc2)n1C` [CBK268707], the viability at 28.5 h, 10 µM came out at 89%.

`O=C(CN(c1cc(Cl)ccc1Cl)S(=O)(=O)c1ccccc1)Nc1cccnc1` [CBK268708]: the viability at 28.5 h, 10 µM is 59.3%.

For the compound `O=S(=O)(/N=C(/Nc1nccs1)c1ccccc1)c1cccs1` [CBK268709], the viability at 28.5 h, 10 µM was 83.8%.

On to `CSc1ncc(Cl)c(C(=O)Nc2sc3c(c2C(=O)NCc2cccnc2)CCC3)n1` [CBK268710], for which the viability at 28.5 h, 10 µM was 95.9%.

In the case of `Cc1cc(C)c(NC(=O)CSc2nc(C)c(Cc3ccccc3)c(O)n2)c([N+](=O)[O-])c1` [CBK268715], the viability at 28.5 h, 10 µM is 86.8%.

In the case of `NC(=O)c1ccccc1NC(=O)C1CCC(C(=O)Nc2ccccc2C(N)=O)CC1` (stereo not drawn) [CBK268716], the viability at 28.5 h, 10 µM was found to be 87.1%.

For `Cc1ccccc1CNCCNCC(C)O` (stereo not drawn) [CBK268718C], the viability at 28.5 h, 10 µM is 95.9%.

For `Cc1ccc(C(C)C)c(OCC(=O)NS(=O)(=O)c2ccc(Br)cc2)c1` [CBK268719], the viability at 28.5 h, 10 µM was found to be 101%.

Consider `CCOc1cc(C)c(C(C)C)cc1S(=O)(=O)NCCN1CCOCC1` [CBK268727], for which the viability at 28.5 h, 10 µM is 110%.

`O=C(O)CC(NC(=O)C(c1ccccc1)c1ccccc1)c1ccco1` (stereo not drawn) [CBK268729]: the viability at 28.5 h, 10 µM was determined as 109%.

As for `Cc1cc(-c2nnc(SCC(=O)N3CCCCC3)o2)no1` [CBK268731], the viability at 28.5 h, 10 µM was 86.6%.

In the case of `CCOc1ccc2ccccc2c1CNCCc1ccc(S(N)(=O)=O)cc1` [CBK268732C], the viability at 28.5 h, 10 µM amounted to 88.7%.

For the compound `O=C1CC(N2CCC(c3nc4ccccc4o3)CC2)C(=O)N1Cc1cccs1` (stereo not drawn) [CBK268735], the viability at 28.5 h, 10 µM is 104%.

As for `COc1cc(OC)cc(-c2nnc(SCc3cccc(C(=O)O)c3)[nH]2)c1` [CBK268736], the viability at 28.5 h, 10 µM amounted to 108%.

As to `O=C(Nc1ccc(NC(=O)c2ccco2)cc1)c1ccc(N2CCOCC2)c([N+](=O)[O-])c1` [CBK268739], the viability at 28.5 h, 10 µM was determined as 95.2%.

For `COc1c(Cl)cc(Cl)cc1C(=O)NC(=S)Nc1sc2c(c1C#N)CCCC2` [CBK268741], the viability at 28.5 h, 10 µM was 84.4%.

In the case of `OCC(CO)(CO)NCc1ccc(-c2ccccc2)cc1` [CBK268742C], the viability at 28.5 h, 10 µM worked out at 93.2%.

`Cc1ccc(-n2c(SCC(=O)Nc3ccccc3C#N)nnc2-c2cc(Br)ccc2O)c(C)c1` [CBK268743]: the viability at 28.5 h, 10 µM was determined as 94.1%.

For `N#C/C(=C/c1ccccc1OCc1cccc([N+](=O)[O-])c1)c1ccc(C(=O)O)cc1` [CBK268748], the viability at 28.5 h, 10 µM was 96.2%.

On to `Cn1c2ccccc2c2nnc(SCCCC(=O)c3ccc4c(c3)OCCO4)nc21` [CBK268750], for which the viability at 28.5 h, 10 µM is 97.5%.

With `O=C(Cn1ncc2ccccc2c1=O)NNC(=S)Nc1ccc2c(c1)OCO2` [CBK268751], the viability at 28.5 h, 10 µM stood at 100%.

Consider `O=C1CC(C(=O)Nc2ccccc2)NC(Nc2cc(Cl)cc(Cl)c2)=N1` (stereo not drawn) [CBK268752], for which the viability at 28.5 h, 10 µM was found to be 106%.

With `CSc1nsc(SCC(=O)c2ccc(NC(C)=O)cc2)n1` [CBK268755], the viability at 28.5 h, 10 µM amounted to 82.3%.

Consider `O=C(NC(=S)Nc1cccc(-c2nc3ncccc3o2)c1)c1cc([N+](=O)[O-])ccc1N1CCOCC1` [CBK268756], for which the viability at 28.5 h, 10 µM stood at 92.7%.

Consider `Cc1ccc(OC(C)C(=O)Nc2ccc(S(=O)(=O)Nc3cc(C)on3)cc2)cc1` (stereo not drawn) [CBK268757], for which the viability at 28.5 h, 10 µM was found to be 89.6%.

As for `CSc1nc(NN2C(=O)c3ccccc3C2=O)c2c3c(sc2n1)COC(C)(C)C3` [CBK268758], the viability at 28.5 h, 10 µM turned out to be 85.6%.

On to `CCCSc1nnc(NC(=O)c2nc(SC)ncc2Cl)s1` [CBK268759], for which the viability at 28.5 h, 10 µM is 95.2%.

For `CC(C)(Oc1ccc(Cl)cc1)C(=O)O/N=C(\N)c1ccc(I)cc1` [CBK268760], the viability at 28.5 h, 10 µM amounted to 97.2%.

Regarding `CS(=O)(=O)Nc1cccc(C2=NN(S(=O)(=O)c3ccc(Cl)cc3)C(c3ccccc3F)C2)c1` (stereo not drawn) [CBK268762], the viability at 28.5 h, 10 µM was determined as 114%.

What is called viability is a read-out of living cells in per cent, often relative to untreated cells.

The values are drawn from PMC12040169 (PLOS Biology, 2025).
